# Reference: US20200316113A1, “USE OF COMPOSITION COMPRISING FERROUS AMINO ACID CHELATE IN MANUFACTURE OF MEDICAMENT FOR INHIBITING ANGIOGENESIS” (PROFEAT BIOTECHNOLOGY CO., LTD., priority 2017, published 2020)
# Tested on: human umbilical vein endothelial cells (HUVECs)
# Assay: MTT assay, effect of VEGF and Composition A1 on cell proliferation
# Type: cell-based
# Conditions: 0, 24, 48 and 72 hours, control group as basis
# Experimental: Recombinant human vascular endothelial growth factor (VEGF) was purchased from R&D systems; Cat No. 293-VE. The HUVECs were used in the experiments. The cells were seeded in a 24-well plate at a density of 2×10^4 cells/well. The experiments include control group (not treated with VEGF) and the groups respectively treated with 1 ng/mL VEGF, 5 ng/mL VEGF, 10 ng/mL VEGF and 20 ng/mL VEGF for 0 hour, 24 hours, 48 hours and 72 hours. Each group was triplicated. The MTT assays were performed and values of OD 565 were measured in order to observe the effect of VEGF on cell growth.
substance,measurement,setting,value
VEGF,"cell number / cell proliferation of HUVEC (OD 565, MTT)",1 ng/mL VEGF,not significant
same,"cell number / cell proliferation of HUVEC (OD 565, MTT)",5 ng/mL VEGF,not significant
same,"cell number / cell proliferation of HUVEC (OD 565, MTT)",10 ng/mL VEGF,increased
same,"cell number / cell proliferation of HUVEC (OD 565, MTT)",20 ng/mL VEGF,increased
